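Step 1: Grow cells in 96-well plates. Step 2: Expose to compound for 48 hours at 5 concentrations. Step 3: Interpolate endpoints linearly; if unreached, use highest concentration. GI50 is the concentration that inhibits growth by half.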 Calls of active or inactive are those of the source. Cut-off read from the data, not from the text of the source: active = GI50 up to about 1.1 µM and inactive = higher.
How the values were obtained:
Assay in all cases: DTP human tumour cell line panel, 48 h
HT-29 = system: HT-29
OVCAR-4 = system: OVCAR-4
IGROV-1 = system: IGROV-1
A549 = system: A549
RPMI-8226 = system: RPMI-8226
CCRF-CEM = system: CCRF-CEM
KM12 = system: KM12
SR = system: SR
SF-268 = system: SF-268
OVCAR-8 = system: OVCAR-8
SN12C = system: SN12C
NCI-H23 = system: NCI-H23
ACHN = system: ACHN
BT-549 = system: BT-549
NCI-H522 = system: NCI-H522
SK-MEL-5 = system: SK-MEL-5
Malme-3M = system: Malme-3M
UACC-62 = system: UACC-62
CAKI-1 = system: CAKI-1
T47D = system: T47D

SMILES	GI50 (HT-29)	GI50 (OVCAR-4)	GI50 (IGROV-1)	GI50 (A549)	GI50 (RPMI-8226)	GI50 (CCRF-CEM)	GI50 (KM12)	GI50 (SR)	GI50 (SF-268)	GI50 (OVCAR-8)	GI50 (SN12C)	GI50 (NCI-H23)	GI50 (ACHN)	GI50 (BT-549)	GI50 (NCI-H522)	GI50 (SK-MEL-5)	GI50 (Malme-3M)	GI50 (UACC-62)	GI50 (CAKI-1)	GI50 (T47D)
CN(C)Cc1cc(C=O)cc(CN(C)C)c1O	> 100 µM (inactive)	> 100 µM (inactive)	> 100 µM (inactive)	> 100 µM (inactive)	> 100 µM (inactive)	> 100 µM (inactive)	> 100 µM (inactive)	> 100 µM (inactive)	> 100 µM (inactive)	> 100 µM (inactive)	> 100 µM (inactive)	26.1 µM (inactive)	> 100 µM (inactive)	> 100 µM (inactive)	> 100 µM (inactive)	> 100 µM (inactive)	> 100 µM (inactive)	–	–	–
COc1cc(NC(C)c2ccc3c(c2)OCCO3)cc(OC)c1OC (configuration not stated)	33.7 µM (inactive)	68.4 µM (inactive)	59.3 µM (inactive)	45 µM (inactive)	23.9 µM (inactive)	–	31.5 µM (inactive)	10.4 µM (inactive)	26.7 µM (inactive)	47.3 µM (inactive)	63.2 µM (inactive)	18.9 µM (inactive)	70 µM (inactive)	33 µM (inactive)	17.5 µM (inactive)	18.5 µM (inactive)	19.1 µM (inactive)	29.9 µM (inactive)	46 µM (inactive)	–
O=C(O)CC(Cc1ccccc1)C(=O)O (configuration not stated)	> 100 µM (inactive)	> 100 µM (inactive)	> 100 µM (inactive)	> 100 µM (inactive)	> 100 µM (inactive)	> 100 µM (inactive)	> 100 µM (inactive)	–	> 100 µM (inactive)	> 100 µM (inactive)	37.2 µM (inactive)	> 100 µM (inactive)	> 100 µM (inactive)	> 100 µM (inactive)	> 100 µM (inactive)	> 100 µM (inactive)	> 100 µM (inactive)	> 100 µM (inactive)	> 100 µM (inactive)	> 100 µM (inactive)
O=C(c1ccccc1)C1C(C(=O)c2ccccc2)N1Cc1ccccc1 (configuration not stated)	36.5 µM (inactive)	39.9 µM (inactive)	49.8 µM (inactive)	24.2 µM (inactive)	48.9 µM (inactive)	36.6 µM (inactive)	27.8 µM (inactive)	–	37.1 µM (inactive)	32.4 µM (inactive)	21.4 µM (inactive)	37.8 µM (inactive)	41.9 µM (inactive)	25.9 µM (inactive)	24.5 µM (inactive)	20 µM (inactive)	34.4 µM (inactive)	15.7 µM (inactive)	75.3 µM (inactive)	11.6 µM (inactive)
CC1=C(C(=O)NNC(=O)c2ccccc2)CC(C(=O)NNC(=O)c2ccccc2)=C(C)N1	> 100 µM (inactive)	> 100 µM (inactive)	> 100 µM (inactive)	> 100 µM (inactive)	> 100 µM (inactive)	> 100 µM (inactive)	> 100 µM (inactive)	–	> 100 µM (inactive)	> 100 µM (inactive)	> 100 µM (inactive)	> 100 µM (inactive)	> 100 µM (inactive)	> 100 µM (inactive)	> 100 µM (inactive)	> 100 µM (inactive)	–	> 100 µM (inactive)	> 100 µM (inactive)	> 100 µM (inactive)
Clc1ccc(Nc2nnc(CNc3ccc(-c4nnc(Nc5ccc(Cl)cc5)o4)cc3)o2)cc1	12.2 µM (inactive)	17.4 µM (inactive)	14.1 µM (inactive)	13.6 µM (inactive)	9.42 µM (inactive)	7.13 µM (inactive)	8.36 µM (inactive)	–	21.2 µM (inactive)	8.87 µM (inactive)	16 µM (inactive)	15.9 µM (inactive)	17.1 µM (inactive)	17.7 µM (inactive)	16 µM (inactive)	15.9 µM (inactive)	14.7 µM (inactive)	13.6 µM (inactive)	17.9 µM (inactive)	24.6 µM (inactive)
O=C(O)CC1OCC=C2CN3CCC45C6=CC(=O)C(O)=C([N+](=O)[O-])C6=NC4C1C2CC35 (configuration not stated)	> 100 µM (inactive)	> 100 µM (inactive)	> 100 µM (inactive)	> 100 µM (inactive)	31 µM (inactive)	18.1 µM (inactive)	> 100 µM (inactive)	–	> 100 µM (inactive)	> 100 µM (inactive)	> 100 µM (inactive)	> 100 µM (inactive)	> 100 µM (inactive)	> 100 µM (inactive)	> 100 µM (inactive)	> 100 µM (inactive)	> 100 µM (inactive)	34.4 µM (inactive)	> 100 µM (inactive)	> 100 µM (inactive)
CC(NC(=O)c1ccc(Cl)c(Cl)c1)c1ccc(-c2ccccc2)cc1 (configuration not stated)	71.6 µM (inactive)	16.4 µM (inactive)	32.8 µM (inactive)	16.4 µM (inactive)	39.4 µM (inactive)	–	57.7 µM (inactive)	15.2 µM (inactive)	29.3 µM (inactive)	26.3 µM (inactive)	52.2 µM (inactive)	48.3 µM (inactive)	50.1 µM (inactive)	66.5 µM (inactive)	33.3 µM (inactive)	75.7 µM (inactive)	21.5 µM (inactive)	31.6 µM (inactive)	29.9 µM (inactive)	–
O=C(O)Cc1c(-c2ccc([N+](=O)[O-])cc2)c(=O)oc2cc(O)ccc12	11.6 µM (inactive)	–	61.4 µM (inactive)	37.3 µM (inactive)	19.9 µM (inactive)	22.5 µM (inactive)	26.9 µM (inactive)	25.9 µM (inactive)	34.8 µM (inactive)	23.2 µM (inactive)	30.5 µM (inactive)	36.3 µM (inactive)	24.2 µM (inactive)	23.8 µM (inactive)	29 µM (inactive)	18.1 µM (inactive)	24.1 µM (inactive)	38.9 µM (inactive)	> 10 µM (inactive)	–
Cc1ccnc2nc(-c3cccc4ccccc34)cc(O)c12	0.00296 µM (active)	0.115 µM (active)	0.043 µM (active)	0.019 µM (active)	0.00682 µM (active)	0.00527 µM (active)	0.0183 µM (active)	0.0007 µM (active)	0.00867 µM (active)	0.0203 µM (active)	0.127 µM (active)	0.0783 µM (active)	0.0248 µM (active)	14.1 µM (inactive)	0.00106 µM (active)	0.000991 µM (active)	0.000708 µM (active)	0.00196 µM (active)	0.0121 µM (active)	–
CCOC(=O)C(C)(C)Oc1ccc(Cl)cc1 [CLOFIBRATE]	159 µM (inactive)	322 µM (inactive)	461 µM (inactive)	432 µM (inactive)	–	596 µM (inactive)	324 µM (inactive)	–	650 µM (inactive)	63.1 µM (inactive)	320 µM (inactive)	303 µM (inactive)	> 1000 µM (inactive)	> 1000 µM (inactive)	435 µM (inactive)	147 µM (inactive)	215 µM (inactive)	514 µM (inactive)	> 1000 µM (inactive)	202 µM (inactive)
